{"source": "ChEMBL document CHEMBL4837235", "about": "“Cyclic Imine Pinnatoxin G is Cytotoxic to Cancer Cell Lines via Nicotinic Acetylcholine Receptor-Driven Classical Apoptosis” (2021)", "key": {"PC-3 [1]": {"test_system": "PC-3", "experiment": "Cytotoxicity against human PC-3 cells assessed as reduction in cell viability at 5 uM after 72 hrs by MTT assay", "format": "functional"}, "MDA-MB-231 [2]": {"test_system": "MDA-MB-231", "experiment": "Cytotoxicity against human MDA-MB-231 cells assessed as reduction in cell viability at 5 uM after 72 hrs by MTT assay", "format": "functional"}, "U-87 MG [3]": {"test_system": "U-87 MG", "experiment": "Cytotoxicity against human U87 cells assessed as reduction in cell viability at 5 uM after 72 hrs by MTT assay", "format": "functional, U-87MG ATCC"}, "LN-18 [4]": {"test_system": "LN-18", "experiment": "Cytotoxicity against human LN-18 cells assessed as reduction in cell viability at 5 uM after 72 hrs by MTT assay", "format": "functional"}, "[5]": {"experiment": "Cytotoxicity against human U373 cells assessed as reduction in cell viability at 5 uM after 72 hrs by MTT assay", "format": "functional, U-373MG ATCC", "settings": "U373 MG"}, "HT-29 [6]": {"test_system": "HT-29", "experiment": "Cytotoxicity against human HT-29 cells assessed as reduction in cell viability at 5 uM after 72 hrs by MTT assay", "format": "functional"}, "MDA-MB-231 [7]": {"test_system": "MDA-MB-231", "experiment": "Cell cycle arrest in human MDA-MB-231 cells assessed as accumulation of cells at G0/G1 phase at 5 uM after 72 hrs by propidium iodide staining based flow cytometric analysis (reference value: 57.7+/- 0.6%)", "format": "functional"}, "PC-3 [8]": {"test_system": "PC-3", "experiment": "Cell cycle arrest in human PC-3 cells assessed as accumulation of cells at G0/G1 phase at 5 uM after 72 hrs by propidium iodide staining based flow cytometric analysis (reference value: 59.7+/- 0.2%)", "format": "functional"}, "HT-29 [9]": {"test_system": "HT-29", "experiment": "Cell cycle arrest in human HT-29 cells assessed as accumulation of cells at S phase at 5 uM after 72 hrs by propidium iodide staining based flow cytometric analysis (reference value: 5.3+/- 0.4%)", "format": "functional"}, "HT-29 [10]": {"test_system": "HT-29", "experiment": "Cell cycle arrest in human HT-29 cells assessed as accumulation of cells at G2/M phase at 5 uM after 72 hrs by propidium iodide staining based flow cytometric analysis (reference value: 22.3+/- 0.4%)", "format": "functional"}, "MDA-MB-231 [11]": {"test_system": "MDA-MB-231", "experiment": "Cell cycle arrest in human MDA-MB-231 cells assessed as accumulation of cells at subG1 phase at 5 uM after 72 hrs by propidium iodide staining based flow cytometric analysis (reference value: 1.1+/- 0.1%)", "format": "functional"}, "HT-29 [12]": {"test_system": "HT-29", "experiment": "Cell cycle arrest in human HT-29 cells assessed as accumulation of cells at subG1 phase at 5 uM after 72 hrs by propidium iodide staining based flow cytometric analysis (reference value: 1.9+/- 0.1%)", "format": "functional"}, "PC-3 [13]": {"test_system": "PC-3", "experiment": "Cell cycle arrest in human PC-3 cells assessed as accumulation of cells at subG1 phase at 5 uM after 72 hrs by propidium iodide staining based flow cytometric analysis (reference value: 3.7+/- 0.2%)", "format": "functional"}, "MDA-MB-231 [14]": {"test_system": "MDA-MB-231", "experiment": "Induction of apoptosis in human MDA-MB-231 cells assessed as caspase activation using Ac-DEVD-AMC as substrate at 5 uM measured after 72 hrs by fluorometric assay relative to control", "format": "functional"}, "PC-3 [15]": {"test_system": "PC-3", "experiment": "Induction of apoptosis in human PC-3 cells assessed as caspase activation using Ac-DEVD-AMC as substrate at 5 uM measured after 72 hrs by fluorometric assay relative to control", "format": "functional"}, "HT-29 [16]": {"test_system": "HT-29", "experiment": "Induction of apoptosis in human HT-29 cells assessed as caspase activation using Ac-DEVD-AMC as substrate at 5 uM measured after 72 hrs by fluorometric assay relative to control", "format": "functional"}, "MDA-MB-231 [17]": {"test_system": "MDA-MB-231", "experiment": "Induction of apoptosis in human MDA-MB-231 cells assessed as early apoptosis at 5 uM measured after 72 hrs by AnnexinV/propidium iodide staining based flow cytometry", "format": "functional"}, "HT-29 [18]": {"test_system": "HT-29", "experiment": "Induction of apoptosis in human HT-29 cells assessed as early apoptosis at 5 uM measured after 72 hrs by AnnexinV/propidium iodide staining based flow cytometry", "format": "functional"}, "PC-3 [19]": {"test_system": "PC-3", "experiment": "Induction of apoptosis in human PC-3 cells assessed as early apoptosis at 5 uM measured after 72 hrs by AnnexinV/propidium iodide staining based flow cytometry", "format": "functional"}, "MDA-MB-231 [20]": {"test_system": "MDA-MB-231", "experiment": "Induction of mitochondrial membrane permeability in human MDA-MB-231 cells assessed as mitochondrial membrane permeability at 5 uM measured after 72 hrs by TMRE staining based analysis (reference value: 7%)", "format": "functional"}, "HT-29 [21]": {"test_system": "HT-29", "experiment": "Induction of mitochondrial membrane permeability in human HT-29 cells assessed as mitochondrial membrane permeability at 5 uM measured after 72 hrs by TMRE staining based analysis (reference value: 7%)", "format": "functional"}, "PC-3 [22]": {"test_system": "PC-3", "experiment": "Induction of mitochondrial membrane permeability in human PC-3 cells assessed as mitochondrial membrane permeability at 5 uM measured after 72 hrs by TMRE staining based analysis (reference value: 7%)", "format": "functional"}, "[23]": {"biological_target": "T1, Neuronal acetylcholine receptor (Homo sapiens) (UniProt P17787+P30926+P32297+P43681+Q15822+Q9UGM1+Q15825+P30532+P36544+Q9GZZ6+Q05901)", "experiment": "Antagonist activity at nAChR in human MDA-MB-231 cells assessed as reduction cytoplasmic free calcium level at 5 uM measured upto 6 hrs by Fura2-AM dye based fluorescence assay", "format": "cell-based", "settings": "time hrs <=6"}, "[24]": {"biological_target": "T1, Neuronal acetylcholine receptor (Homo sapiens)", "experiment": "Antagonist activity at nAChR in human HT-29 cells assessed as reduction in cytoplasmic free calcium level at 5 uM measured upto 6 hrs by Fura2-AM dye based fluorescence assay", "format": "cell-based", "settings": "time hrs <=6"}, "[25]": {"biological_target": "T1, Neuronal acetylcholine receptor (Homo sapiens)", "experiment": "Antagonist activity at nAChR in human PC-3 cells assessed as reduction in cytoplasmic free calcium level at 5 uM measured upto 6 hrs by Fura2-AM dye based fluorescence assay", "format": "cell-based", "settings": "time hrs <=6"}, "N2a": {"test_system": "N2a", "experiment": "Cytotoxicity against mouse Neuro2a cells assessed as cell viability at 0.46 uM measured after 72 hrs by MTT assay", "format": "functional, cell-based"}, "Caco-2": {"test_system": "Caco-2", "experiment": "Cytotoxicity against human Caco-2 cells assessed as cell viability at 0.46 uM measured after 72 hrs by MTT assay", "format": "functional, cell-based"}, "HeLa": {"test_system": "HeLa", "experiment": "Cytotoxicity against human HeLa cells assessed as loss of cell viability at 5.76 uM measured after 72 hrs by MTT assay", "format": "functional"}, "MDA-MB-231 [26]": {"test_system": "MDA-MB-231", "experiment": "Cell cycle arrest in human MDA-MB-231 cells assessed as decrease in accumulation of cells at G2/M phase at 5 uM after 72 hrs by propidium iodide staining based flow cytometric analysis", "format": "functional"}, "PC-3 [27]": {"test_system": "PC-3", "experiment": "Cell cycle arrest in human PC-3 cells assessed as decrease in accumulation of cells at G2/M phase at 5 uM after 72 hrs by propidium iodide staining based flow cytometric analysis", "format": "functional"}, "PC-3 [28]": {"test_system": "PC-3", "experiment": "Cytotoxicity against human PC-3 cells assessed as reduction in cell viability at 5 uM after 48 to 72 hrs by MTT assay", "format": "functional, cell-based", "settings": "time 48-72 hrs"}, "MDA-MB-231 [29]": {"test_system": "MDA-MB-231", "experiment": "Cytotoxicity against human MDA-MB-231 cells assessed as reduction in cell viability at 5 uM after 48 to 72 hrs by MTT assay", "format": "functional, cell-based", "settings": "time 48-72 hrs"}, "U-87 MG [30]": {"test_system": "U-87 MG", "experiment": "Cytotoxicity against human U87 cells assessed as reduction in cell viability at 5 uM after 24 to 72 hrs by MTT assay", "format": "functional, cell-based", "settings": "U-87MG ATCC, time 24-72 hrs"}, "LN-18 [31]": {"test_system": "LN-18", "experiment": "Cytotoxicity against human LN-18 cells assessed as reduction in cell viability at 5 uM after 24 to 72 hrs by MTT assay", "format": "functional, cell-based", "settings": "time 24-72 hrs"}, "U-373MG ATCC": {"test_system": "U-373MG ATCC", "experiment": "Cytotoxicity against human U373 cells assessed as reduction in cell viability at 5 uM after 24 to 72 hrs by MTT assay", "format": "functional, cell-based", "settings": "time 24-72 hrs"}, "HT-29 [32]": {"test_system": "HT-29", "experiment": "Cytotoxicity against human HT-29 cells assessed as reduction in cell viability at 5 uM after 24 to 72 hrs by MTT assay", "format": "functional, cell-based", "settings": "time 24-72 hrs"}, "PC-3 [33]": {"test_system": "PC-3", "experiment": "Cytotoxicity against human PC-3 cells assessed as reduction in cell viability at 5 uM after 24 hrs by MTT assay", "format": "functional, cell-based"}, "MDA-MB-231 [34]": {"test_system": "MDA-MB-231", "experiment": "Cytotoxicity against human MDA-MB-231 cells assessed as reduction in cell viability at 5 uM after 24 hrs by MTT assay", "format": "functional, cell-based"}}, "note": "The source made the active and inactive calls. The rule behind the calls is not given here.", "data": [{"smiles": "C=CC1=C[C@@H]2[C@@H]3O[C@]4(C[C@H]5CCC[C@@]6(CC[C@@]7(O[C@@H](CC[C@@]7(C)O)CC(=C)CCCC7=NC[C@H](C)[C@@H](C)C[C@@]72CC1)O6)O5)C[C@@H](C)[C@@H](O)[C@H]3O4", "values": [{"measurement": "inhibition at 5 µM", "setting": "PC-3 [1]", "value": 30, "unit": "%"}, {"measurement": "inhibition at 5 µM", "setting": "MDA-MB-231 [2]", "value": 30, "unit": "%"}, {"measurement": "inhibition at 5 µM", "setting": "U-87 MG [3]", "value": 30, "unit": "%"}, {"measurement": "inhibition at 5 µM", "setting": "LN-18 [4]", "value": 50, "unit": "%"}, {"measurement": "inhibition at 5 µM", "setting": "[5]", "value": 50, "unit": "%"}, {"measurement": "inhibition at 5 µM", "setting": "HT-29 [6]", "value": 50, "unit": "%"}, {"measurement": "Activity", "setting": "MDA-MB-231 [7]", "value": 62.4, "unit": "%"}, {"measurement": "Activity", "setting": "PC-3 [8]", "value": 65.4, "unit": "%"}, {"measurement": "Activity", "setting": "HT-29 [9]", "value": 8, "unit": "%"}, {"measurement": "Activity", "setting": "HT-29 [10]", "value": 32.5, "unit": "%"}, {"measurement": "Activity", "setting": "MDA-MB-231 [11]", "value": 4.5, "unit": "%"}, {"measurement": "Activity", "setting": "HT-29 [12]", "value": 5.5, "unit": "%"}, {"measurement": "Activity", "setting": "PC-3 [13]", "value": 9.7, "unit": "%"}, {"measurement": "fold change (FC)", "setting": "MDA-MB-231 [14]", "value": 5.5}, {"measurement": "fold change (FC)", "setting": "PC-3 [15]", "value": 5.5}, {"measurement": "fold change (FC)", "setting": "HT-29 [16]", "value": 10.5}, {"measurement": "Activity", "setting": "MDA-MB-231 [17]", "value": 13.7, "unit": "%"}, {"measurement": "Activity", "setting": "HT-29 [18]", "value": 10.7, "unit": "%"}, {"measurement": "Activity", "setting": "PC-3 [19]", "value": 13.9, "unit": "%"}, {"measurement": "Activity", "setting": "MDA-MB-231 [20]", "value": 14.8, "unit": "%"}, {"measurement": "Activity", "setting": "HT-29 [21]", "value": 17.9, "unit": "%"}, {"measurement": "Activity", "setting": "PC-3 [22]", "value": 13.8, "unit": "%"}, {"measurement": "inhibition", "setting": "[23]", "value": 23.6, "unit": "%"}, {"measurement": "inhibition", "setting": "[24]", "value": 16.2, "unit": "%"}, {"measurement": "inhibition", "setting": "[25]", "value": 14.2, "unit": "%"}, {"measurement": "Activity", "setting": "N2a", "value": "inactive"}, {"measurement": "Activity", "setting": "Caco-2", "value": "inactive"}, {"measurement": "Activity", "setting": "HeLa", "value": 27, "unit": "%"}, {"measurement": "Activity", "setting": "MDA-MB-231 [26]", "value": "Active"}, {"measurement": "Activity", "setting": "PC-3 [27]", "value": "Active"}, {"measurement": "Activity", "setting": "PC-3 [28]", "value": "Active"}, {"measurement": "Activity", "setting": "MDA-MB-231 [29]", "value": "Active"}, {"measurement": "Activity", "setting": "U-87 MG [30]", "value": "Active"}, {"measurement": "Activity", "setting": "LN-18 [31]", "value": "Active"}, {"measurement": "Activity", "setting": "U-373MG ATCC", "value": "Active"}, {"measurement": "Activity", "setting": "HT-29 [32]", "value": "Active"}, {"measurement": "Activity", "setting": "PC-3 [33]", "value": "inactive"}, {"measurement": "Activity", "setting": "MDA-MB-231 [34]", "value": "inactive"}]}]}
